Assay results published in patent US8586020B2, “Poly(organophosphazene) composition for biomaterials” (Korea Institute of Science and Technology, priority 2011, dated 2013).

What was measured:
[1] = pH 7.4

| Substance | Max. Gelling Temp. [1] [°C] | cell viability (MTT) (NIH3T3 cells) |
| --- | --- | --- |
| Poly[(isoleucineethylester)(aminomethoxy polyethyleneglycol550)(tyramine)phosphazene] [Example 24] | 34 |  |
| Poly[(isoleucineethylester)(aminomethoxy polyethyleneglycol550)(cysteamine)phosphazene] [Example 21] | 38 | such a high viability as the cell alone |
| Poly[(isoleucineethylester)(aminomethoxy polyethyleneglycol550)(cysteamine)phosphazene] [Example 22] | 42 | such a high viability as the cell alone |
